# Experimental data from US10183943B2, “Heterocyclic compounds and their use in preventing or treating bacterial infections” (MUTABILIS, priority 2015, dated 2019).
# Like-named read-outs stand apart in the source and are kept apart here.
# Tests used:
# [1] = biological target: T1, TEM-1 (Escherichia coli, UniProt P62593); assay: β-lactamase inhibitory activity, determination of IC50 (nitrocefin hydrolysis); format: biochemical
# T1 construct: made in house; host or cells: E. coli
# [2] = biological target: T2, SHV-1 (Klebsiella pneumoniae, UniProt P0AD64); assay: as above; format: biochemical
# T2 construct: made in house; host or cells: E. coli
# [3] = biological target: T3, CTX-M-15 (Escherichia coli, UniProt Q9EXV5); assay: as above; format: biochemical
# T3 construct: made in house; host or cells: E. coli
# [4] = biological target: T4, KPC-2 (Klebsiella pneumoniae, UniProt Q9F663); assay: as above; format: biochemical
# T4 construct: made in house; host or cells: E. coli
# [5] = biological target: T5, OXA-1 (Escherichia coli, UniProt P13661); assay: as above; format: biochemical
# T5 construct: made in house; host or cells: E. coli
# [6] = biological target: T6, OXA-11 (Pseudomonas aeruginosa, UniProt Q06778); assay: as above; format: biochemical
# T6 construct: made in house; host or cells: E. coli
# [7] = biological target: T7, OXA-15 (Pseudomonas aeruginosa, UniProt Q51574); assay: biochemical
# T7 construct: made in house; host or cells: E. coli
# [8] = biological target: T8, OXA-48 (Klebsiella pneumoniae, UniProt Q6XEC0); assay: β-lactamase inhibitory activity, determination of IC50 (nitrocefin hydrolysis); format: biochemical
# T8 construct: made in house; host or cells: E. coli
# [9] = system: E. cloacae 260508 (TEM-1, CTX-M-15); assay: MIC of compounds alone, broth microdilution; format: cell-based; conditions: Enterobacter cloacae, read-out: MIC compounds of the invention alone
# In short: (§1)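 Read-out: lowest compound concentration with no growth by visual inspection. CLSI M7-A7 broth microdilution, cation-adjusted Mueller-Hinton broth, inoculum 5×10^5 cfu/mL from log-phase culture, 16-20 h, 35° C, ambient air; compound tested without β-lactam.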
# [10] = system: E. cloacae P99 (AmpC); assay: MIC of compounds alone, broth microdilution; format: cell-based; conditions: Enterobacter cloacae, read-out: MIC compounds of the invention alone
# In short: as §1
# [11] = system: E. cloacae UFR51 (SHV-12, IMP-8); assay: MIC of compounds alone, broth microdilution; format: cell-based; conditions: Enterobacter cloacae, read-out: MIC compounds of the invention alone
# In short: as §1
# [12] = system: E. cloacae UFR70 (TEM-1, CTX-M-15, CMY-2, OXA-1, Porin loss); assay: MIC of compounds alone, broth microdilution; format: cell-based; conditions: Enterobacter cloacae, read-out: MIC compounds of the invention alone
# In short: as §1
# [13] = system: E. cloacae UFR85 (TEM-1, CTX-M-15, AmpC); assay: MIC of compounds alone, broth microdilution; format: cell-based; conditions: Enterobacter cloacae, read-out: MIC compounds of the invention alone
# In short: as §1
# [14] = system: E. coli 131119 (TEM-1, OXA-48); assay: MIC of compounds alone, broth microdilution; format: cell-based; conditions: Escherichia coli, read-out: MIC compounds of the invention alone
# In short: as §1
# [15] = system: E. coli 190317 (TEM-1, SHV-12, CTX-M-15, OXA-1); assay: MIC of compounds alone, broth microdilution; format: cell-based; conditions: Escherichia coli, read-out: MIC compounds of the invention alone
# In short: as §1
# [16] = system: E. coli RGN238 (OXA-1); assay: MIC of compounds alone, broth microdilution; format: cell-based; conditions: Escherichia coli, read-out: MIC compounds of the invention alone
# In short: as §1
# [17] = system: E. coli UFR18 (CTX-M-15, OXA-204); assay: MIC of compounds alone, broth microdilution; format: cell-based; conditions: Escherichia coli, read-out: MIC compounds of the invention alone
# In short: as §1
# [18] = system: E. coli UFR32 (TEM-1, VEB-1, OXA-10); assay: MIC of compounds alone, broth microdilution; format: cell-based; conditions: Escherichia coli, read-out: MIC compounds of the invention alone
# In short: as §1
# [19] = system: E. coli UFR41 (TEM-1, CTX-M-15, CMY-2, OXA-1, NDM-4); assay: MIC of compounds alone, broth microdilution; format: cell-based; conditions: Escherichia coli, read-out: MIC compounds of the invention alone
# In short: as §1
# [20] = system: E. coli UFR61O (TEM-1, KPC-2); assay: MIC of compounds alone, broth microdilution; format: cell-based; conditions: Escherichia coli, read-out: MIC compounds of the invention alone
# In short: as §1
# [21] = system: E. coli UFR74 (SHV-1, DHA-1); assay: MIC of compounds alone, broth microdilution; format: cell-based; conditions: Escherichia coli, read-out: MIC compounds of the invention alone
# In short: as §1
# [22] = system: K. oxytoca UFR21 (TEM-1, CTX-M-15, OXA-48); assay: MIC of compounds alone, broth microdilution; format: cell-based; conditions: Klebsiella oxytoca, read-out: MIC compounds of the invention alone
# In short: as §1
# [23] = system: K. pneumoniae 160143 (TEM-1, SHV-1, CTX-M-15, KPC-2, OXA-1); assay: MIC of compounds alone, broth microdilution; format: cell-based; conditions: Klebsiella pneumoniae, read-out: MIC compounds of the invention alone
# In short: as §1
# [24] = system: K. pneumoniae 200047 (TEM-1, SHV-32, CTX-M-15, OXA-1); assay: MIC of compounds alone, broth microdilution; format: cell-based; conditions: Klebsiella pneumoniae, read-out: MIC compounds of the invention alone
# In short: as §1
# [25] = system: K. pneumoniae 6299 (TEM-1, SHV-11, OXA-163); assay: MIC of compounds alone, broth microdilution; format: cell-based; conditions: Klebsiella pneumoniae, read-out: MIC compounds of the invention alone
# In short: as §1
# [26] = system: K. pneumoniae BAA-1898 (TEM-1, SHV-11, SHV-12, KPC-2); assay: MIC of compounds alone, broth microdilution; format: cell-based; conditions: Klebsiella pneumoniae
# In short: as §1
# [27] = system: K. pneumoniae UFR24 (TEM-1, SHV-2, SHV-11, OXA-1, OXA-48, OXA-47); assay: MIC of compounds alone, broth microdilution; format: cell-based; conditions: Klebsiella pneumoniae, read-out: MIC compounds of the invention alone
# In short: as §1
# [28] = system: K. pneumoniae UFR39 (CTX-M-15, NDM-1); assay: MIC of compounds alone, broth microdilution; format: cell-based; conditions: Klebsiella pneumoniae, read-out: MIC compounds of the invention alone
# In short: as §1
# [29] = system: K. pneumoniae UFR68 (TEM-1, SHV-11, CTX-M-15, KPC-3); assay: MIC of compounds alone, broth microdilution; format: cell-based; conditions: Klebsiella pneumoniae, read-out: MIC compounds of the invention alone
# In short: as §1
# [30] = system: K. pneumoniae UFR77 (CMY-2); assay: MIC of compounds alone, broth microdilution; format: cell-based; conditions: Klebsiella pneumoniae, read-out: MIC compounds of the invention alone
# In short: as §1
# [31] = system: P. aeruginosa CIP107051 (TEM-24); assay: MIC of compounds alone, broth microdilution; format: cell-based; conditions: Pseudomonas aeruginosa
# In short: as §1
# [32] = biological target: AmpC (P99) (Enterobacter cloacae, UniProt P05364); assay: β-lactamase inhibitory activity, determination of IC50 (nitrocefin hydrolysis)
# [33] = biological target: AmpC P. aeruginosa (Pseudomonas aeruginosa, UniProt P24735); assay: as above
# Sequence of AmpC P. aeruginosa (P24735 27-397): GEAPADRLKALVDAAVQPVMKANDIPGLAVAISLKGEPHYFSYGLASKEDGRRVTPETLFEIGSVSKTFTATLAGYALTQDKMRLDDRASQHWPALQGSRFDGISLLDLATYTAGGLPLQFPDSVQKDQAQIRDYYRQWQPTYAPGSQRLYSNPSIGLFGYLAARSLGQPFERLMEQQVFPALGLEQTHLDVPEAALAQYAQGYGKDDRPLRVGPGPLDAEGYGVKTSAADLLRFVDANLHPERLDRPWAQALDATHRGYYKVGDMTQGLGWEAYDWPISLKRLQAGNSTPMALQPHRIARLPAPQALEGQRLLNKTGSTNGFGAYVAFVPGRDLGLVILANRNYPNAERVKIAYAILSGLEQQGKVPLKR
# T6 sequence (Q06778 21-266): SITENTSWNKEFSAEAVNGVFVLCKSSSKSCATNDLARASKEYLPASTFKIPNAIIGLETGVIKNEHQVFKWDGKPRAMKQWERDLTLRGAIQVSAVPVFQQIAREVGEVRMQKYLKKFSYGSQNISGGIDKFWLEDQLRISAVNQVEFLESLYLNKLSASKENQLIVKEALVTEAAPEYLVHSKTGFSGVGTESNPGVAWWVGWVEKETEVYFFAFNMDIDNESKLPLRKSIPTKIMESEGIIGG
# T1 sequence (P62593 24-286 limits assumed): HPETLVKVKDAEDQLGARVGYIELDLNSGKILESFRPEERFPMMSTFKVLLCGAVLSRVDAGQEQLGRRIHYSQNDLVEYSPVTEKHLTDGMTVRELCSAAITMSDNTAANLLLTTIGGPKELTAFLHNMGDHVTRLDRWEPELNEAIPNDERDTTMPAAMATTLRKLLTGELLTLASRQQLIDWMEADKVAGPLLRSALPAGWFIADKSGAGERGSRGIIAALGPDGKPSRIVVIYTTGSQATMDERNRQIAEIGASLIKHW
# T5 sequence (P13661 26-276): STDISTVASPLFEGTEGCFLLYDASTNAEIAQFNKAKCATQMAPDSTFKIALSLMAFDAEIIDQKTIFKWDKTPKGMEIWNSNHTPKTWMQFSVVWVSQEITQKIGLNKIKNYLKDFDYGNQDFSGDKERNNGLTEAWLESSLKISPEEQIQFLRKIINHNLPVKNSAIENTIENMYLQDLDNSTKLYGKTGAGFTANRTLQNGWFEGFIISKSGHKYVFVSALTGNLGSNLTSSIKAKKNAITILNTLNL
# T8 sequence (Q6XEC0 23-265 limits assumed): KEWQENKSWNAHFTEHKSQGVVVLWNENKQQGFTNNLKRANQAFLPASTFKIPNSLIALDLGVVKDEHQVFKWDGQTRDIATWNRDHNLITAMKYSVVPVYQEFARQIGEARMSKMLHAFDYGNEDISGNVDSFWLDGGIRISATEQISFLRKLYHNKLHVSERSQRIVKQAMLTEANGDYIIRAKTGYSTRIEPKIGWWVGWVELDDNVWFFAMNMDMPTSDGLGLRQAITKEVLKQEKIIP
# T3 sequence (Q9EXV5 entry or part of it): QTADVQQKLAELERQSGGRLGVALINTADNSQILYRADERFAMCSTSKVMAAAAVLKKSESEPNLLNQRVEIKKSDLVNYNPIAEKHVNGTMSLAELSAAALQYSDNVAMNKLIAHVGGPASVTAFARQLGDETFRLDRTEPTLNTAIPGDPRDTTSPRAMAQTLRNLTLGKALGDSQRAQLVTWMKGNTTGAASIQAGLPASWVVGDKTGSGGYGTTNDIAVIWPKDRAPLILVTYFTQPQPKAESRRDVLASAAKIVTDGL
# Sequence of AmpC (P99) (P05364 21-381): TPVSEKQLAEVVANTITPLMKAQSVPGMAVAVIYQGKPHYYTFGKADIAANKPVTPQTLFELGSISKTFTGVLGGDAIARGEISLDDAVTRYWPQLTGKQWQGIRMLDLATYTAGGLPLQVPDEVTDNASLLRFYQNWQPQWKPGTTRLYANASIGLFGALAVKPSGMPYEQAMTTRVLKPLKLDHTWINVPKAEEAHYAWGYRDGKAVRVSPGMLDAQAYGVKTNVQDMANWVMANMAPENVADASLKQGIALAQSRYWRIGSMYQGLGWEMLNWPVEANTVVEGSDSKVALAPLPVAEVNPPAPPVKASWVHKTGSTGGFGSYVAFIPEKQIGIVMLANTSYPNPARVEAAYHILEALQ
# T4 sequence (Q9F663 25-293 limits assumed): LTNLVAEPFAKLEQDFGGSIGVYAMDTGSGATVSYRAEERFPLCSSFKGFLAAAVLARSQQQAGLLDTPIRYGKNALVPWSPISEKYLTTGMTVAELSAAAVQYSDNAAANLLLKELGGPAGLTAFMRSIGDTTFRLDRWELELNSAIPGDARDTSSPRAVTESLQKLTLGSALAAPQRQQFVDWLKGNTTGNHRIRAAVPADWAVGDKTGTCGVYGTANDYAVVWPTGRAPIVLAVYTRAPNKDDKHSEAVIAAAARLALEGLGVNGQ
# T7 sequence (Q51574 22-275): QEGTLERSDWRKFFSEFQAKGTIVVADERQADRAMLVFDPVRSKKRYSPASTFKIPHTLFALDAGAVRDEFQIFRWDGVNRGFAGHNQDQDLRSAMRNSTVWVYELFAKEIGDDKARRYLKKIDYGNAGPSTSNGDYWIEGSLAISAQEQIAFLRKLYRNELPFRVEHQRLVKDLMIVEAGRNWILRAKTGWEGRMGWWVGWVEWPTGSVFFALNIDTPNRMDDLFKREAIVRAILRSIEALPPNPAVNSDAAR
# T2 sequence (P0AD64 22-286): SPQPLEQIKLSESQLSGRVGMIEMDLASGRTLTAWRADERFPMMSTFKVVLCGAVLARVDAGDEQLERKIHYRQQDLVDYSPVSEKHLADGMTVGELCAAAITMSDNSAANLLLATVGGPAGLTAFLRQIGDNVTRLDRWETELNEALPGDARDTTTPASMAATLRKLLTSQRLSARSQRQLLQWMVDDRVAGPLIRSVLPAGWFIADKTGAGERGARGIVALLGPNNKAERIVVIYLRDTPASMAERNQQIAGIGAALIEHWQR
structure (smiles),measurement,setting,value
O=C1N2CC(c3ncco3)=C[C@H](C2)N1OC(F)(F)C(=O)O (racemic) [Example 37],IC50,[1],1.6 nM
same,IC50,[2],13 nM
same,IC50,[3],0.57 nM
same,IC50,[4],53 nM
same,IC50,[5],7400 nM
same,IC50,[6],210 nM
same,IC50,[7],59 nM
same,IC50,[8],1.8 nM
same,MIC,[9],4 µg/mL
same,MIC,[10],8 µg/mL
same,MIC,[11],4 µg/mL
same,MIC,[12],2 µg/mL
same,MIC,[13],2 µg/mL
same,MIC,[14],2 µg/mL
same,MIC,[15],2 µg/mL
same,MIC,[16],2 µg/mL
same,MIC,[17],2 µg/mL
same,MIC,[18],2 µg/mL
same,MIC,[19],16 µg/mL
same,MIC,[20],8 µg/mL
same,MIC,[21],4 µg/mL
same,MIC,[22],4 µg/mL
same,MIC,[23],4 µg/mL
same,MIC,[24],2 µg/mL
same,MIC,[25],8 µg/mL
same,MIC,"[26]; BAA1898, read-out: MIC compounds of the invention alone",4 µg/mL
same,MIC,[27],4 µg/mL
same,MIC,[28],8 µg/mL
same,MIC,[29],4 µg/mL
same,MIC,[30],4 µg/mL
same,MIC,"[31]; CIP107051, read-out: MIC compounds of the invention alone",> 128 µg/mL
same,IC50,[32],630 nM
same,IC50,[33],240 nM
"O=C1N2CC=C(c3cnoc3)C(C2)N1OS(=O)(=O)[O-].[Na+] (centres unmarked) [Example 5, Sodium (7-oxo-4-isoxazol-4-yl-1,6-diaza-bicyclo[3.2.1]oct-3-en-6-yl) sulfate]",IC50,[1],11 nM
same,IC50,[2],25 nM
same,IC50,"[3]; class (A), nitrocefin 200 μM, 30 min pre-incubation, read-out: IC50 β-lactamase CTX-M-15",6.9 nM
same,IC50,"[4]; class (A), nitrocefin 200 μM, 30 min pre-incubation, read-out: IC50 β-lactamase KPC-2",270 nM
same,IC50,"[5]; class (D), nitrocefin 200 μM, 30 min pre-incubation, read-out: IC50 β-lactamase OXA-1",450 nM
same,IC50,[6],2200 nM
same,IC50,[7],94 nM
same,IC50,"[8]; class (D), nitrocefin 200 μM, 30 min pre-incubation, read-out: IC50 β-lactamase OXA-48",5.7 nM
same,MIC,[9],16 µg/mL
same,MIC,[10]; strain P99 (E. cloacae),8 µg/mL
same,MIC,[11]; strain UFR51 (E. cloacae),2 µg/mL
same,MIC,[12],16 µg/mL
same,MIC,[13],> 32 µg/mL
same,MIC,[14]; strain 131119 (E. coli),16 µg/mL
same,MIC,[16]; strain RGN238 (E. coli),> 32 µg/mL
same,MIC,[17]; strain UFR18 (E. coli),1 µg/mL
same,MIC,[18]; strain UFR32 (E. coli),1 µg/mL
same,MIC,[19],> 32 µg/mL
same,MIC,[20]; strain UFR61O (E. coli),8 µg/mL
same,MIC,[21]; strain UFR74 (E. coli),> 32 µg/mL
same,MIC,[22],> 32 µg/mL
same,MIC,[23],> 32 µg/mL
same,MIC,[24],> 32 µg/mL
same,MIC,[25]; strain 6299 (K. pneumoniae),> 32 µg/mL
same,MIC,"[26]; BAA1898, strain BAA-1898 (K. pneumoniae), read-out: MIC compounds of the invention alone",> 32 µg/mL
same,MIC,[27]; strain UFR24 (K. pneumoniae),> 32 µg/mL
same,MIC,[28]; strain UFR39 (K. pneumoniae),2 µg/mL
same,MIC,[29],> 32 µg/mL
same,MIC,[30]; strain UFR77 (K. pneumoniae),> 32 µg/mL
same,MIC,"[31]; strain CIP107051 (P. aeruginosa), read-out: MIC compounds of the invention alone",> 32 µg/mL
same,IC50,[32],670 nM
same,IC50,[33],1500 nM
